Data taken from PMC10535864, “Novel Aminopyrimidine-2,4-diones, 2-Thiopyrimidine-4-ones, and 6-Arylpteridines as Dual-Target Inhibitors of BRD4/PLK1: Design, Synthesis, Cytotoxicity, and Computational Studies” (Pharmaceuticals, 2023).
“And” between values parts separate entries of the source, which are not always exact repeats. Equal values may be shown once.

How the values were obtained:
Assay type in all cases: cell-based
[1] = system: MDA-MB-231 cells; experiment: Cell cycle analysis, propidium iodide flow cytometry; settings: treated at IC50 concentration, 48 h
From the text: (§1) The results are indicated as a dot plot graph with four quadrant images (Figure 5B). […] However, both compounds also raised the necrotic percent by 1.8- and 2.8-fold, respectively, compared to non-treated cells. Overall, these findings implied that compound 7 could exert anticancer activity by producing cell cycle arrest at the G2/M phase and inducing apoptosis.
(§2) An Epics XL-MCL™ Flow Cytometer and Flowing software 2012 were used to count and analyze stained cells. The Supplementary file contains detailed descriptions of the flow cytometric analysis of cell-cycle distribution and cellular apoptosis. […]
(§3) 1.3.Cell cycle and apoptosis screening […]
(§4) investigated using an Ab-139418 propidium iodide flow cytometry kit and an Annexin-V assay and biparametric cytofluorimetric analysis, respectively, as instructed by the manufacturer. IC50s of both 7 and […]
Cytometer and Flowing software were used to count and analyze stained cells. The Supplementary file contains detailed descriptions of the flow cytometric analysis of cell-cycle distribution and cellular apoptosis.
1.3.1. Cell cycle analysis […]
a six-well plate containing MDA-MB-231 breast cancer cells was seeded with 1 X 10^5 cells per well and then […]
Following that, cells were gathered and fixed in ice-cold 70% ethanol at 4 °C for 12 hours. The cells were then rinsed with cold Phosphate Buffer Saline (PBS) and incubated for 30 minutes at 37°C in 0.5 mL of PBS after the ethanol was removed. Propidium iodide was used to stain the cells for 30 min while they were in the dark. DNA content was determined using a flow cytometer. […]

[2] = system: MDA-MB-231 cells; experiment: Apoptosis screening, annexin V-FITC/PI flow cytometry; settings: compared to non-treated control MDA-MB-231 cells
From the text: as §1, §2, §3, §4
Cytometer and Flowing software were used to count and analyze stained cells. The Supplementary file contains detailed descriptions of the flow cytometric analysis of cell-cycle distribution and cellular apoptosis. […]
1.3.2. Apoptosis screening […]
plate received 1 X 105 conc. breast cancer (MDA-MB-231) cells that were then incubated for 24 hours. The cells […]
with PBS, and stained for 15 min at room temperature in the dark with annexin V-FITC and PI in binding buffer (10 […]
µM HEPES, 140 µM NaCl, and 2.5 µM CaCl2 at pH 7.4). […]
high-quality RNA iseluted in RNase-free water.
1.4.2. Master mix preparation
All the following reagents were mixed together to give a totalvolume (50 μL). 2X SYBR® Green RT-PCR reaction mixture (25 μL), forward primer (10 μM) (1.5 μL), reverse primer (10 μM) (1.5 μL), nuclease-free H2O (11 μL), RNA template (1 pg to 100 ng totalRNA) (10 μL) and iScript reverse transcriptase for One-Step RT-PCR (1 μL).
1.4.3. Amplification protocol
Incubate complete reaction mixture in a real-time thermal detection system (Rotorgene) as follows: cDNA synthesis:
10 min at 50 °C, iScript reverse transcriptase inactivation: 5 min at 95 °C, polymerase chain reaction (PCR) cycling and detection (30–45 cycles): 10 s at 95 °C and 30 s at 55 °C to 60 °C (data collection step) and melt curve analysis:
1 min at95 °C and 1 min at55 °C and 10 s at55 °C (80 cycles, increasing each by 0.5 °C each cycle).

[3] = system: caspase-3 gene in MDA-MB-231 cells; experiment: RT-PCR gene expression, caspase-3; settings: 48 h treatment, control = 1
Description: (§5) As well, there was an apparent increase in caspase-3, showing 3.9-fold more expression than in control cells.
(§6) Fluorometric analysis was used to gauge the level of these genes’ expression. The procedure for the used kit was carried out in accordance with the manufacturer’s instructions, which are detailed in the Supplementary file. […]
(§7) […] at pH 7.4). The flow cytometer was then used to examine the cells […]
(§8) 1.4.Estimation of apoptotic and anti-apoptotic gene markers […]
(§9) such as Bax and caspase-3, as well as anti-apoptotic genes such as Bcl-2, was studied using the BIORAD iScriptTM One-Step RT-PCR kit with SYBR® Green. MDA-MB-231 cells were cultured before being treated for 48 hours […]
(§10) Fluorometric analysis was used to gauge the level of these genes' expression. The procedure for the used kit was carried out in accordance with the manufacturer's instructions, which are detailed as follows:
(§11) 1.4.1. RNA isolation and reverse transcription m RNA isolation iscarried out using an RNeasy extraction kit,up to 1 x 10^7 cells, depending on the cell line. Cells are disrupted in RNeasy Lysis Buffer (RLT buffer), homogenized, then ethanol is added to the lysate, creating conditions that promote selective binding of RNA to the RNeasy membrane. […]

[4] = system: Bcl-2 gene in MDA-MB-231 cells; experiment: RT-PCR gene expression, Bcl-2; settings: 48 h treatment, control = 1
Description: as §5, §6, §7, §8, §9, §10, §11

[5] = system: BAX gene in MDA-MB-231 cells; experiment: RT-PCR gene expression, BAX; settings: 48 h treatment, control = 1
Description: as §5, §6, §7, §8, §9, §10, §11

## Cn1c(SCC(=O)c2ccccc2)nc(=O)c(/N=C(/CBr)c2ccccc2)c1N [Compound 7, (E)-6-Amino-5-((2-bromo-1-phenylethylidene)amino)-1-methyl-2-((2-oxo-2-phenylethyl)thio)pyrimidin-4(1H)-one]
[1]; control 9.19%
  DNA content % at cell cycle phase %G2/M: 22.36%
[1]; control 29.53%
  DNA content % at cell cycle phase %S: 28.02%
[1]; control 61.28%
  DNA content % at cell cycle phase %G0/G1: 49.62%
[2]
  increase in early apoptosis: 58.8 fold
  increase in total apoptosis: 19.3 fold
  rise of necrotic percent: 1.8 fold
[3]
  Gene expression Caspase-3 (apoptotic gene): 3.9 fold and 3.904 fold
[4]
  Gene expression Bcl-2 (anti-apoptotic gene): 0.30 fold and 0.301 fold
[5]
  Gene expression BAX (apoptotic gene): 7.3 fold and 7.325 fold
